Results from US20260041683A1, “Compounds with Anti-Acinetobacter Baumannii Activity” (University of Kentucky Research Foundation, priority 2022, published 2026).
≈ marks a conversion by molar mass, not a printed value. Where two headings read alike, the source gives them in different places.

What was measured:
Ab ATCC 19606 (strain I) = assay: MIC determination (double dilution, Mueller-Hinton broth); type: cell-based, Acinetobacter baumannii; settings: Acinetobacter baumannii, ATCC19606
Description: All bacterial strains listed above were stored at −80° C. All strains were streaked on Mueller-Hinton (MH) plates and allowed to grow at 37° C. overnight. […] The resulting culture was diluted 1:1000 and added to the prepared serially doubly diluted compound solutions in 96-well plates. For M. smegmatis, a 1:100 dilution of the bacteria was done in MH. All MIC values were determined using 96-well plates with low evaporation seals at least in duplicate. For each row, one well was reserved for sterile control (which consisted of 200 μL of MH medium) and another well was reserved for growth control (which consisted of 100 μL of MH medium seeded with 100 μL of bacterial culture).
(§1) Minimum inhibitory concentrations (MIC) of all compounds from the series were measured in liquid cultures of different Ab strains by a double-dilution method in Mueller-Hinton broth. Initially, the activity of all 46 compounds against Ab ATCC 19606 (a control strain) and Ab ATCC BAA1605 (a multidrug-resistant strain) (Table 1; data shown for 27 representative compounds) was measured.

[1] = tested on: Ab ATCC BAA1605 (strain J, multidrug-resistant); assay: MIC determination; type: cell-based; settings: Acinetobacter baumannii
Description: (§2) All bacterial strains listed above were stored at −80° C. All strains were streaked on Mueller-Hinton (MH) plates and allowed to grow at 37° C. overnight. Enough colonies were scraped from the plate and suspended in MH broth with vortexing to reach an attenuance at 600 nm (OD600) of ˜0.5. The resulting culture was diluted 1:1000 and added to the prepared serially doubly diluted compound solutions in 96-well plates. For M. smegmatis, a 1:100 dilution of the bacteria was done in MH. All MIC values were determined using 96-well plates with low evaporation seals at least in duplicate. For each row, one well was reserved for sterile control (which consisted of 200 μL of MH medium) and another well was reserved for growth control (which consisted of 100 μL of MH medium seeded with 100 μL of bacterial culture).
as §1

K. pneumoniae ATCC 27736 = assay: MIC determination; type: cell-based; settings: Klebsiella pneumoniae, ATCC27736; Table 5; Mueller-Hinton medium; F = K. pneumoniae ATCC 27736; read-out: MIC strain F
P. aeruginosa ATCC 27853 = assay: MIC determination; type: cell-based; settings: Pseudomonas aeruginosa, ATCC27853; Table 5; Mueller-Hinton medium; G = P. aeruginosa ATCC 27853; read-out: MIC strain G
B. anthracis Sterne F32 = assay: microbe, parasite or virus in culture; type: cell-based; settings: Bacillus anthracis, STERNEF32, read-out: MIC strain A
S. enterica ATCC 14028 = assay: MIC determination; type: cell-based; settings: Salmonella enterica, ATCC14028; Table 5; Mueller-Hinton medium; H = S. enterica ATCC 14028; read-out: MIC strain H
E. cloacae ATCC 13047 = assay: MIC determination; type: cell-based; settings: Enterobacter cloacae, ATCC13047; Table 5; Mueller-Hinton medium; E = E. cloacae ATCC 13047; read-out: MIC strain E
[2] = tested on: S. epidermidis ATCC 12228; assay: MIC determination; type: cell-based; settings: Staphylococcus epidermidis, ATCC12228; Table 5; Mueller-Hinton medium; C = S. epidermidis ATCC 12228; read-out: MIC strain C
S. aureus ATCC 25923 = assay: MIC determination; type: cell-based; settings: Staphylococcus aureus, ATCC25923; Table 5; Mueller-Hinton medium; B = S. aureus ATCC 25923; read-out: MIC strain B
E. coli MC1061 = assay: MIC determination; type: cell-based; settings: Escherichia coli; Table 5; Mueller-Hinton medium; D = E. coli MC1061; read-out: MIC strain D
[3] = tested on: all 43 strains of A. baumannii (41 CDC strains and 2 ATCC strains); assay: MIC value statistics for all A. baumannii strains; type: cell-based, Acinetobacter baumannii; settings: of 43 A. baumannii strains
Description: as §2, with “[…].” for “For M. smegmatis, a 1:100 dilution of the bacteria was done in MH. All MIC values were determined using 96-well plates with low evaporation seals at least in duplicate.”
Having established that the observed activity is selective to A. baumannii, all synthesized compounds were tested against a panel of antibiotic resistant A. baumannii from the Antimicrobial Resistant (AR) Isolate Bank from the CDC along with strains I and J (Table Si). […]. Based on this statistical analysis, the best compound is 5e followed closely by 3e.

Gram-negative bacteria = assay: MIC determination, panel statement; type: cell-based; settings: moderate activity
[4] = Table 1, control strain, read-out: MIC Ab ATCC 19606
[5] = Table 5, Mueller-Hinton medium, I = A. baumannii ATCC 19606, read-out: MIC strain I
[6] = Table 1, multidrug-resistant strain, read-out: MIC Ab ATCC BAA 1605
[7] = Table 5, Mueller-Hinton medium, J = A. baumannii BAA1605, read-out: MIC strain J

Row | Structure (SMILES) | MIC (Ab ATCC 19606 (strain I); [4]) | MIC (Ab ATCC 19606 (strain I); [5]) | MIC [1, 6] | MIC [1, 7] | MIC (K. pneumoniae ATCC 27736) | MIC (P. aeruginosa ATCC 27853) | MIC (B. anthracis Sterne F32) | MIC (S. enterica ATCC 14028) | MIC (E. cloacae ATCC 13047) | MIC [2] | MIC (S. aureus ATCC 25923) | MIC (E. coli MC1061) | number of compound/strain combinations with MIC value 0.25 μg/mL [3] | number of compound/strain combinations with MIC value 0.5 μg/mL [3] | number of compound/strain combinations with MIC value 1 μg/mL [3] | number of compound/strain combinations with MIC value ≤0.125 μg/mL [3] | number of compound/strain combinations with MIC value 2 μg/mL [3] | number of compound/strain combinations with MIC value >64 μg/mL [3] | MIC (Gram-negative bacteria)
1 | O=C(NNc1ccc(Cl)cc1)c1ccc2ccccc2n1 [Compound 12e] | 0.5 µg/mL (≈ 1.68 µM) | 0.5 µg/mL (≈ 1.68 µM) | 0.5 µg/mL (≈ 1.68 µM) | 0.5 µg/mL (≈ 1.68 µM) | > 64 µg/mL | > 64 µg/mL | > 64 µg/mL | > 64 µg/mL | > 64 µg/mL | > 64 µg/mL | > 64 µg/mL | 16 µg/mL (≈ 53.7 µM) | 7 | 19 | 17 |  |  |  | 
2 | O=C(NNc1ccc(Cl)cc1)c1ccco1 [Compound 15e] | 0.5 µg/mL (≈ 2.11 µM) | 0.5 µg/mL (≈ 2.11 µM) | ≤ 0.125 µg/mL | ≤ 0.125 µg/mL | 16 µg/mL (≈ 67.6 µM) | > 64 µg/mL | > 64 µg/mL | 16 µg/mL (≈ 67.6 µM) | 4 µg/mL (≈ 16.9 µM) | 64 µg/mL (≈ 270 µM) | 64 µg/mL (≈ 270 µM) | 16 µg/mL (≈ 67.6 µM) | 18 | 10 | 2 | 13 |  |  | 
3 | COc1cccc(NNC(=O)c2ccc(F)cn2)c1 [Compound 3c] | 0.5 µg/mL (≈ 1.91 µM) | 0.5 µg/mL (≈ 1.91 µM) | 0.5 µg/mL (≈ 1.91 µM) | 0.5 µg/mL (≈ 1.91 µM) | > 64 µg/mL | > 64 µg/mL | > 64 µg/mL | > 64 µg/mL | > 64 µg/mL | 64 µg/mL (≈ 245 µM) | > 64 µg/mL | > 64 µg/mL | 2 | 12 | 23 | 1 | 5 |  | 
4 | C=CC(=O)NNc1ccc(Cl)cc1 [Compound 17e] | 0.25 µg/mL (≈ 1.27 µM) | 0.25 µg/mL (≈ 1.27 µM) | 0.25 µg/mL (≈ 1.27 µM) | 0.25 µg/mL (≈ 1.27 µM) | 16 µg/mL (≈ 81.4 µM) | > 64 µg/mL | > 64 µg/mL | 16 µg/mL (≈ 81.4 µM) | 16 µg/mL (≈ 81.4 µM) | 64 µg/mL (≈ 325 µM) | 64 µg/mL (≈ 325 µM) | 16 µg/mL (≈ 81.4 µM) | 21 | 13 |  | 9 |  |  | 
5 | O=C(NNC1CCCCC1)c1ccc2ccccc2n1 [Compound 12h] |  | > 64 µg/mL |  | > 64 µg/mL | > 64 µg/mL | > 64 µg/mL | > 64 µg/mL | > 64 µg/mL | > 64 µg/mL | > 64 µg/mL | > 64 µg/mL | 64 µg/mL (≈ 238 µM) |  |  |  |  |  | 43 | 
6 | O=C(NNc1ccc(Cl)cc1)c1cccc(F)n1 [Compound 5e] | 0.125 µg/mL (≈ 0.47 µM) | ≤ 0.125 µg/mL | 0.125 µg/mL (≈ 0.47 µM) | ≤ 0.125 µg/mL | 16 µg/mL (≈ 60.2 µM) | > 64 µg/mL | > 64 µg/mL | 16 µg/mL (≈ 60.2 µM) | 16 µg/mL (≈ 60.2 µM) | > 64 µg/mL | > 64 µg/mL | 16 µg/mL (≈ 60.2 µM) | 21 | 2 |  | 20 |  |  | 4 to 16 µg/mL (≈ 15.1 to 60.2 µM)
